{"source": "patent US20240285612A1", "about": "“COMPOSITIONS COMPRISING AN AGONIST OF 5-HYDROXYTRYPTAMINE (5-HT) RECEPTOR SUBTYPE 3” (LDN Pharma Limited, priority 2021, published 2024)", "key": {"[1]": {"test_system": "5-HT receptor 3A (HTR3A), transcript variant 2 mRNA", "assay": "Microarray gene expression of HTR3A transcript variant 2 mRNA in CD3+ lymphocytes treated 4 h", "format": "cell-based, human", "procedure": "(§1) CD3+ lymphocytes were isolated from the blood of haematologically normal volunteers. Cells placed into […] flasks at a concentration of 1×10^6/ml, and left to equilibrate in an incubator with a humidified atmosphere and 5% CO2 in air at 37° C. […] RNA extraction was performed using Trizol according to standard procedures, before being processed for microarray analysis according to the standard methodologies. Briefly, equal amounts of biotinylated cRNA was hybridised to the Illumina human HT12-v3 arrays for 18 h and subsequently processed according to manufacturer's instructions before scanning on an Illumina BeadArray Reader. The image data were processed using default values in GenomeStudio v2009.1 with imputation of missing data, before loading onto GeneSpring v9.0 for data normalisation and filtering. Data analyses were performed using Excel software, and the ratio of gene expression signals in treated vs. untreated calculated."}, "[2]": {"test_system": "5-HT receptor 3A (HTR3A), transcript variant 1 mRNA", "assay": "Microarray gene expression of HTR3A transcript variant 1 mRNA in CD3+ lymphocytes treated 4 h", "format": "cell-based, human", "details": "probe ILMN_1681492, HTR3A transcript variant 1, low dose naltrexone 10 nM", "procedure": "as §1"}}, "data": [{"smiles": "O=C1CC[C@@]2(O)[C@H]3Cc4ccc(O)c5c4[C@@]2(CCN3CC2CC2)[C@H]1O5", "note": "[NTX, morphinan-6-one, 17-(cyclopropylmethyl)-4,5-epoxy-3,14-dihydroxy-(5a)]", "values": [{"measurement": "levels of mRNA for one or more of 5-HT3 receptor proteins", "setting": "[1]; both high dose (10 uM) and low dose (10 nM) naltrexone, result in words", "value": "selectively increase the levels of mRNA"}, {"measurement": "gene expression signal LDN", "setting": "[1]; probe ILMN_2371079, HTR3A transcript variant 2, low dose naltrexone 10 nM, 4 h, CD3+ lymphocytes", "value": 124.70}, {"measurement": "gene expression signal NTX", "setting": "[1]; probe ILMN_2371079, HTR3A transcript variant 2, naltrexone 10 uM, 4 h, CD3+ lymphocytes", "value": 151.75}, {"measurement": "gene expression signal LDN", "setting": "[2]", "value": 94.00}]}]}
